The text below walks through data of patent US10144713B1, “Bis-cyclic guanidines as antibacterial agents” (UNIVERSITY OF SOUTH FLORIDA, priority 2017, dated 2018).

By MIC is commonly meant the least concentration at which growth counts as inhibited. One may read the HC50 as the concentration that lyses half of the red blood cells.

Common to all, as to format: cell-based
Data set [1] deals with P. aeruginosa (ATCC27853). Put plainly: MIC against P. aeruginosa. As to conditions: for MIC: Pseudomonas aeruginosa, ATCC27853. As for the experimental part:
(§1) Minimum Inhibitory Concentrations (MICs) Against Bacteria.
(§2) The antimicrobial activity of the compounds was tested on the following six bacteria strains: K. pneumoniae (ATCC 13383), P. aeruginosa (ATCC27853), E. coli (ATCC 25922), vancomycin-resistant Enterococcus faecalis(ATCC 700802), Methicillin-resistant S. aureus (MRSA, ATCC 33591), Methicillin-resistant S. epidermidis (MRSE, RP62A). The procedures were followed as reported previously (Hancock et al., Immunobiology 2006, 211, 315-322). Briefly, a single colony of each bacterium was inoculated in 3 mL TSB medium and incubated overnight at 37° C. Then the bacteria culture was diluted at 1:100 and the bacteria were allowed to grow to mid-logarithmic phase. Next, 50 μL of 2-fold serial dilutions of compounds (0.1-25 μg/mL) were added the 96-well plate containing aliquots of 50 μL of bacteria suspension (1×10^6 CFU/mL) in each well. The mixture was incubated at 37° C. for 16 h, and their absorption at 600 nm wavelength was read on a Biotek Synergy HT microtiter plate reader. […] The experiments were repeated at least three times with duplicates each time. HC50 means the concentration causing 50% hemolysis.

The subject of data set [2] is Methicillin-resistant S. epidermidis (MRSE, RP62A). Briefly: MIC against MRSE. Conditions: Gram +, 16 h, 37° C.; for MIC: Staphylococcus epidermidis, MRSE. As for the experimental part: as §1, §2
The test system of data set [3] is E. coli (ATCC 25922). Put plainly: MIC against E. coli. As to conditions: Gram −, 16 h, 37° C.; for MIC: Escherichia coli, ATCC25922. As for the experimental part: as §1, §2
The test system of data set [4] is K. pneumoniae (ATCC 13383). Briefly: MIC against K. pneumoniae. As to conditions: Gram −, 16 h, 37° C.; for MIC: Klebsiella pneumoniae, ATCC13383. The protocol:
as §1, §2

Data set [5] relates to vancomycin-resistant Enterococcus faecalis (ATCC 700802). Put plainly: MIC against VRE. Conditions: Gram +; 16 h, 37° C. As for the experimental part: as §1, §2
For data set [6], the system named is Methicillin-resistant S. aureus (MRSA, ATCC 33591). Briefly: MIC against MRSA. As to conditions: Gram +, 16 h, 37° C.; for MIC: Staphylococcus aureus. The protocol: as §1, §2
Data set [7] deals with six bacteria strains (K. pneumoniae, P. aeruginosa, E. coli, VRE, MRSA, MRSE). Put plainly: Antimicrobial activity on the panel of six bacteria strains. As for the experimental part:
as §1, §2

The subject of data set [8] is human red blood cells (hRBCs). Briefly: Hemolytic assay. Conditions: for Hemolysis (HC50): concentration causing 50% hemolysis, hRBCs, 37° C., 1 h. As for the experimental part:
The freshly drawn, K2EDTA treated human red blood cells (hRBCs) were washed with 1×PBS buffer, and centrifuged at 3500 rpm for 10 min. The step was repeated until the supernatant became clear. The supernatant was removed, and the RBCs were diluted into 5% v/v suspension. 50 μL of the suspension was incubated with 50 μL of compounds of different concentrations at 37° C. for 1 h. The mixture was centrifuged at 3500 rpm for 10 min. Subsequently, to 30 μL of the supernatant 100 μL PBS was added, and the absorbance of the mixture at 540 nm was read on a Biotek Synergy HT plate reader. The positive control was 2% Triton X-100, and the negative control was 1×PBS alone. The hemolysis activity was calculated by the formula % hemolysis=(Abssample−AbsPBS)/(AbsTriton−AbsPBS)×100%. The experiment was repeated at least three times with duplicates each time.

As for Colistin [reference compound], the “MIC P. aeruginosa” value in data set [1] (Gram −, 16 h, 37° C.) was determined as 1.0 µg/mL. Further, in data set [2], the “MIC MRSE” value was more than 50 µg/mL. The “MIC E. coli” value in data set [3] turned out to be 0.5 µg/mL. Moreover, in data set [4], the “MIC K. pneumoniae” value was found to be 0.5 µg/mL. For the same molecule, the “MIC VRE” value in data set [5] is more than 50 µg/mL. Also, the “MIC MRSA” value in data set [6] was more than 50 µg/mL.
Consider `CCCCCCCCN1C(=N)N(CC(=O)Nc2cccc(NC(=O)CN3C[C@H](Cc4ccccc4)N(CCCCCCCC)C3=N)c2)C[C@@H]1Cc1ccccc1` [Compound 18], for which, in data set [7], the “antibacterial activity against the tested bacteria (in words)” value (from here on “antibacterial activity”) is on record as “decreased activity”. For the same molecule, the minimal inhibitory concentration (MIC) in data set [3] is more than 25 µg/mL; in data set [6] it was 1.5 µg/mL.
As for `N=C1N(CC(=O)NCCCCCCNC(=O)CN2C[C@H](Cc3ccccc3)N(CCCc3ccccc3)C2=N)C[C@H](Cc2ccccc2)N1CCCc1ccccc1` [Compound 9], the “activity against P. aeruginosa (in words)” value in data set [1] is “not active”. Moreover, the MIC is more than 25 µg/mL in data set [1] (Gram −, 16 h, 37° C.); 0.75 to 1.5 µg/mL in data set [2]; 3 to 6 µg/mL in data set [3]; 3 to 6 µg/mL in data set [4]; 1.5 to 3 µg/mL in data set [5]; 0.75 µg/mL in data set [6]. The “Hemolysis (HC50)” value in data set [8] came out at 100 µg/mL. In data set [8] (text b247, unit as printed), the HC50 amounted to 100 µg/mL.
Regarding `N=C1N(CC(=O)Nc2ccc(NC(=O)CN3C[C@H](Cc4ccccc4)N(CCCC4CCCCC4)C3=N)cc2)C[C@H](Cc2ccccc2)N1CCCC1CCCCC1` [Compound 19], the MIC in data set [1] (Gram −, 16 h, 37° C.) was more than 25 µg/mL; in data set [2] it was 0.33 µg/mL; in data set [3], 12 µg/mL; in data set [4], 1.5 to 3 µg/mL; in data set [5], 0.75 µg/mL; in data set [6] it was 0.75 µg/mL. Besides, the “Hemolysis (HC50)” value in data set [8] is 5 µg/mL.
`N#CNc1cccc(NC(=O)CN2C[C@H](Cc3ccccc3)N(CCCc3ccccc3)C2=N)c1` [Compound 7]: the “antibacterial activity” value in data set [7] was “negligible activity”. For the same molecule, the MIC was more than 25 µg/mL in data set [3] and 12 to 25 µg/mL in data set [6].
On to `CCCCCCCCCC(=O)N[C@@H](Cc1c[nH]c2ccccc12)C(=O)N[C@H](CC(N)=O)C(=O)N[C@@H](CC(=O)O)C(=O)N[C@@H]1C(=O)NCC(=O)N[C@@H](CCCN)C(=O)N[C@@H](CC(=O)O)C(=O)N[C@H](C)C(=O)N[C@@H](CC(=O)O)C(=O)NCC(=O)N[C@H](CO)C(=O)N[C@@H]([C@H](C)CC(=O)O)C(=O)N[C@@H](CC(=O)c2ccccc2N)C(=O)O[C@@H]1C` [Daptomycin, reference compound], for which the minimum inhibitory concentration (MIC) was more than 50 µg/mL in data set [1] (Gram −, 16 h, 37° C.); 0.5 µg/mL in data set [2]; more than 50 µg/mL in data set [3]; more than 50 µg/mL in data set [4]; 1 µg/mL in data set [5]; 0.5 µg/mL in data set [6].
Turning to `CCN1C(=N)N(CC(=O)Nc2ccc(NC(=O)CN3C[C@H](Cc4ccccc4)N(CC)C3=N)cc2)C[C@@H]1Cc1ccccc1` [Compound 3], the MIC was more than 25 µg/mL in data set [1] (Gram −, 16 h, 37° C.); more than 25 µg/mL in data set [2]; 1.5 µg/mL in data set [3]; more than 25 µg/mL in data set [4]; more than 25 µg/mL in data set [5]; 6 to 12 µg/mL in data set [6]. The “MIC MRSA” value in data set [6] is 6~12 μg/mL.
Turning to `CCCCCCN1C(=N)N(CC(=O)NCCCCCCCCNC(=O)CN2C[C@H](Cc3ccccc3)N(CCCCCC)C2=N)C[C@@H]1Cc1ccccc1` [Compound 15], the “activity against P. aeruginosa (in words)” value in data set [1] was “reduced activity”. For the same molecule, the minimum inhibitory concentration (MIC) in data set [1] (Gram −, 16 h, 37° C.) is more than 25 µg/mL; in data set [2], 1.5 µg/mL; in data set [3] it was 0.75 to 1.5 µg/mL; in data set [4], 1.5 to 3 µg/mL; in data set [5], 0.325 µg/mL; in data set [6] it was 0.75 µg/mL. For the same molecule, in data set [8], the “Hemolysis (HC50)” value is more than 250 µg/mL.
For `CCCCCCN1C(=N)N(CC(=O)Nc2cccc(NC(=O)CN3C[C@H](CC(C)C)N(CCCCCC)C3=N)c2)C[C@@H]1CC(C)C` [Compound 23], the MIC in data set [1] (Gram −, 16 h, 37° C.) was 6 to 12 µg/mL; in data set [2], 1.5 µg/mL; in data set [3] it was 1.5 to 3 µg/mL; in data set [4], 0.75 µg/mL; in data set [5], 0.75 µg/mL; in data set [6], 1.5 µg/mL. Also, the “Hemolysis (HC50)” value in data set [8] worked out at 200 µg/mL.
With `N=C1N(CC(=O)Nc2cccc(NC(=O)CN3C[C@H](Cc4ccccc4)N(CCCC4CCCCC4)C3=N)c2)C[C@H](Cc2ccccc2)N1CCCC1CCCCC1` [Compound 20], the minimum inhibitory concentration (MIC) in data set [1] (Gram −, 16 h, 37° C.) was more than 25 µg/mL; in data set [2] it was 0.33 µg/mL; in data set [3], 12 µg/mL; in data set [4], 1.5 to 3 µg/mL; in data set [5] it was 1.5 µg/mL; in data set [6] it was 0.325 µg/mL. In addition, the “Hemolysis (HC50)” value in data set [8] was determined as 26 µg/mL.
For `N=C1N[C@@H](Cc2ccccc2)CN1CC(=O)Nc1cccc(NC(=O)CN2C[C@H](Cc3ccccc3)NC2=N)c1` [Compound 2], the MIC in data set [3] and in data set [6] was more than 25 µg/mL throughout.
Consider `N=C1N(CC(=O)Nc2ccc(-c3ccc(NC(=O)CN4C[C@H](Cc5ccccc5)N(CCCc5ccccc5)C4=N)cc3)cc2)C[C@H](Cc2ccccc2)N1CCCc1ccccc1` [Compound 10], for which, in data set [7], the “antibacterial activity” value is recorded as “not active”. In addition, the MIC in data set [3] and in data set [6] was more than 25 µg/mL throughout.
Regarding `N=C1N(CC(=O)Nc2ccc(NC(=O)CN3C[C@H](Cc4ccccc4)N(CCC45CC6CC(CC(C6)C4)C5)C3=N)cc2)C[C@H](Cc2ccccc2)N1CCC12CC3CC(CC(C3)C1)C2` [Compound 21], the MIC in data set [3] is more than 25 µg/mL; in data set [6], 6 µg/mL.
As for `CCN1C(=N)N(CC(=O)Nc2cccc(NC(=O)CN3C[C@H](Cc4ccccc4)N(CC)C3=N)c2)C[C@@H]1Cc1ccccc1` [Compound 4], the MIC was more than 25 µg/mL in data set [1] (Gram −, 16 h, 37° C.); more than 25 µg/mL in data set [2]; 3 µg/mL in data set [3]; more than 25 µg/mL in data set [4]; more than 25 µg/mL in data set [5]; 6 to 12 µg/mL in data set [6]. Further, the “MIC E. coli” value in data set [3] is 3.0 µg/mL. In addition, the “MIC MRSA” value in data set [6] is 6~12 μg/mL.
For the molecule `CCCCCCN1C(=N)N(CC(=O)NCCCCCCNC(=O)CN2C[C@H](Cc3ccccc3)N(CCCCCC)C2=N)C[C@@H]1Cc1ccccc1` [Compound 14], the “activity against P. aeruginosa (in words)” value in data set [1] is on record as “reduced activity”. Moreover, the MIC in data set [1] (Gram −, 16 h, 37° C.) is more than 25 µg/mL; in data set [2], 0.75 µg/mL; in data set [3], 1.5 µg/mL; in data set [4], 3 to 6 µg/mL; in data set [5], 1.5 µg/mL; in data set [6] it was 0.325 µg/mL. The “Hemolysis (HC50)” value in data set [8] is more than 250 µg/mL.
`CCCCCCCCN1C(=N)N(CC(=O)Nc2ccc(NC(=O)CN3C[C@H](Cc4ccccc4)N(CCCCCCCC)C3=N)cc2)C[C@@H]1Cc1ccccc1` [Compound 17]: in data set [7], the “antibacterial activity” value is “decreased activity”. Further, the MIC in data set [3] is more than 25 µg/mL; in data set [6], 1.5 µg/mL.
Regarding `N=C1N(CC(=O)Nc2cccc(NC(=O)CN3C[C@H](Cc4ccccc4)N(CCC45CC6CC(CC(C6)C4)C5)C3=N)c2)C[C@H](Cc2ccccc2)N1CCC12CC3CC(CC(C3)C1)C2` [Compound 22], the results for the MIC in data set [3] and in data set [6] were more than 25 µg/mL and 3 µg/mL, respectively.
`N=C1N(CC(=O)Nc2cccc(NC(N)=O)c2)C[C@H](Cc2ccccc2)N1CCCc1ccccc1` [Compound 8]: in data set [7], the “antibacterial activity” value is reported as “negligible activity”. Further, the values for the MIC in data set [3] and in data set [6] were more than 25 µg/mL and 12 to 25 µg/mL, respectively.
Take `N=C1N[C@@H](Cc2ccccc2)CN1CC(=O)NCCCCNC(=O)CN1C[C@H](Cc2ccccc2)NC1=N` [Compound 1]: the minimum inhibitory concentration (MIC) in data set [3] and in data set [6] was more than 25 µg/mL throughout.
`CCCCCCN1C(=N)N(CC(=O)NCCCCNC(=O)CN2C[C@H](Cc3ccccc3)N(CCCCCC)C2=N)C[C@@H]1Cc1ccccc1` [Compound 13]: the “activity against P. aeruginosa (in words)” value in data set [1] is listed as “reduced activity”. In addition, the MIC in data set [1] (Gram −, 16 h, 37° C.) was more than 25 µg/mL; in data set [2] it was 1.5 µg/mL; in data set [3], 1.5 µg/mL; in data set [4], 6 to 12 µg/mL; in data set [5], 3 to 6 µg/mL; in data set [6] it was 0.75 µg/mL. In data set [8], the “Hemolysis (HC50)” value was more than 250 µg/mL.
